Source: US9078446B2, “Use of N-(tetrazol-4-yl)- or N-(triazol-3-yl)arylcarboxamides or their salts for controlling unwanted plants in areas of transgenic crop plants being tolerant to HPPD inhibitor herbicides” (BAYER INTELLECTUAL PROPERTY GMBH, priority 2011, dated 2015)

Assays:
Format in all cases: in vivo
[1] = test system: non-transformed tobacco plants (Wt); test: Symptoms due to herbicide application on tobacco plants (damage classes 0-3); settings: 25 g Al/ha, one week after application
Outline: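 Tobacco plants grown two weeks in single pots after transfer, then sprayed with herbicides at rates in g active ingredient/ha, 8 to 10 plants per group. Symptoms scored on a 0–3 scale: 0 none, 1 light and transient, 2 strong, 3 very strong damage.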

[2] = test system: transgenic tobacco plants expressing HPPD from Kordia algicida FMP27; test: Symptoms due to herbicide application on transgenic tobacco plants (damage classes 0-3); settings: 25 g Al/ha, one week after application
Outline: (§1)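 Tobacco transformed via pBin19 with the HPPD gene under CaMV35S, fused to an N-terminal chloroplast transit peptide. T1 plants, potted at 3 weeks and grown 2 more weeks, sprayed with N-(tetrazol-4-yl)/N-(triazol-3-yl)arylcarboxamides (g AI/ha) on 8–10 plants from 1–3 events per transgene. Damage scored 0 (none) to 3 (very strong), versus non-transformed plants.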

[3] = test system: transgenic tobacco plants expressing Avena HPPD (AvHPPD); test: as above; settings: 25 g Al/ha, one week after application
Outline: as §1

[4] = test system: transgenic tobacco plants expressing HPPD from Blepharisma japonicum (FMP37); test: as above; settings: 25 g Al/ha, one week after application
Outline: as §1

[5] = test system: cotton plants expressing FMP 27 and FMP 37; test: Tolerance to HPPD inhibitors of cotton plants expressing tolerant HPPD enzymes; settings: T1 cotton plants; one week after application
Outline: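 Transgenic cotton expressed Blepharisma japonicum (FMP37) or Kordia algicida (FMP27) HPPD under CaMV35S with an N-terminal chloroplast transit peptide. T1 plants came from tembotrione-tolerant T0 events, were grown in single pots, and were sprayed at least 4 weeks later with N-(tetrazol-4-yl)- or N-(triazol-3-yl)arylcarboxamides.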

[6] = test system: transgenic tobacco plants expressing tolerant HPPD enzymes; test: Tolerance of tobacco plants expressing tolerant HPPD enzymes (all transgenes)
Outline: as §1

SMILES: Cc1c(C(=O)Nc2nnnn2C)ccc(C(F)(F)F)c1S(C)(=O)=O [Compound 4-137]
- number of plants with Damage 0 (No damage) [1]: 0
- number of plants with Damage 1 (Light and transient damage) [1]: 0
- number of plants with Damage 2 (Strong damage) [1]: 0
- number of plants with Damage 3 (Very strong damage) [1]: 10
- number of plants with Damage 0 (No damage) ([2]; FMP27 line 733): 4
- number of plants with Damage 1 (Light and transient damage) ([2]; FMP27 line 733): 0
- number of plants with Damage 2 (Strong damage) ([2]; FMP27 line 733): 1
- number of plants with Damage 3 (Very strong damage) ([2]; FMP27 line 733): 5
- number of plants with Damage 0 (No damage) ([2]; FMP27 line 734): 5
- number of plants with Damage 1 (Light and transient damage) ([2]; FMP27 line 734): 2
- number of plants with Damage 2 (Strong damage) ([2]; FMP27 line 734): 0
- number of plants with Damage 3 (Very strong damage) ([2]; FMP27 line 734): 3
- number of plants with Damage 0 (No damage) ([2]; FMP27 line 735): 3
- number of plants with Damage 1 (Light and transient damage) ([2]; FMP27 line 735): 0
- number of plants with Damage 2 (Strong damage) ([2]; FMP27 line 735): 4
- number of plants with Damage 3 (Very strong damage) ([2]; FMP27 line 735): 3
- number of plants with Damage 0 (No damage) ([3]; AvHPPD line 656): 3
- number of plants with Damage 1 (Light and transient damage) ([3]; AvHPPD line 656): 1
- number of plants with Damage 2 (Strong damage) ([3]; AvHPPD line 656): 1
- number of plants with Damage 3 (Very strong damage) ([3]; AvHPPD line 656): 5
- number of plants with Damage 0 (No damage) ([3]; AvHPPD line 659): 3
- number of plants with Damage 1 (Light and transient damage) ([3]; AvHPPD line 659): 3
- number of plants with Damage 2 (Strong damage) ([3]; AvHPPD line 659): 0
- number of plants with Damage 3 (Very strong damage) ([3]; AvHPPD line 659): 4
- number of plants with Damage 0 (No damage) ([3]; AvHPPD line 699): 1
- number of plants with Damage 1 (Light and transient damage) ([3]; AvHPPD line 699): 2
- number of plants with Damage 2 (Strong damage) ([3]; AvHPPD line 699): 0
- number of plants with Damage 3 (Very strong damage) ([3]; AvHPPD line 699): 7
- number of plants with Damage 0 (No damage) ([4]; FMP37 line 749): 8
- number of plants with Damage 1 (Light and transient damage) ([4]; FMP37 line 749): 2
- number of plants with Damage 2 (Strong damage) ([4]; FMP37 line 749): 0
- number of plants with Damage 3 (Very strong damage) ([4]; FMP37 line 749): 0
- number of plants with Damage 0 (No damage) ([4]; FMP37 line 754): 0
- number of plants with Damage 1 (Light and transient damage) ([4]; FMP37 line 754): 1
- number of plants with Damage 2 (Strong damage) ([4]; FMP37 line 754): 1
- number of plants with Damage 3 (Very strong damage) ([4]; FMP37 line 754): 8
- number of plants with Damage 0 (No damage) ([4]; FMP37 line 795): 2
- number of plants with Damage 1 (Light and transient damage) ([4]; FMP37 line 795): 0
- number of plants with Damage 2 (Strong damage) ([4]; FMP37 line 795): 2
- number of plants with Damage 3 (Very strong damage) ([4]; FMP37 line 795): 6
- tolerance of transgenic plants compared to the wild-type cotton plants [5]: superior tolerance
- tolerance of the transgenic tobacco plants (symptoms due to application of the herbicide) ([6]; T1 plants sprayed, evaluated one week after application): good tolerance
- sensitivity of transgenic tobacco plants compared to wild type (wt) plants ([6]; all tested independent lines, agronomically relevant dose): less sensitive
